Data taken from US20210228523A1, “MODULATORS OF SESTRIN-GATOR2 INTERACTION AND USES THEREOF” (Navitor Pharmaceuticals, Inc., priority 2017, published 2021).

Columns and labels:
[1] = system: layer V pyramidal neurons in PFC; assay: Whole cell patch clamp recording of 5-HT- and Hcrt-induced EPSCs in brain slices after oral dosing; format: in vivo, rat; conditions: Example H, NV-5138 160 mg/kg oral single dose
Protocol: (§1) Study Design: Sixteen (16) male rats weighing between 175 and 200 g were randomized into 2 study groups (n=8), following a 5-day acclimation period. On study day 0, rats received a single dose of either NV vehicle (Veh, 0.5% methylcellulose/0.1% Tween-80) or NV-5138 (160 mg/kg), by oral gavage. On day 1, 24 hrs after dosing, rats were sacrificed, and brain slices were prepared and subjected to whole cell patch clamp recording of layer V pyramidal neurons in PFC.
Preparation of Test Articles: NV-5138 (Navitor, Lot #07) was prepared by dissolving in Veh (0.5% methylcellulose/0.1% Tween-80) at a concentration of 50 mg/mL. The dosing volume based on the weight of the animal (3.2 mL/kg) was administered by oral gavage to study animals. Test articles were prepared the day of dosing.
Brain Slice Preparation: Brain slices were prepared according to published procedures (Liu, R. J. et al., J. Neurosci. 22(21): 9453-9464 (2002)). Briefly, rats were anesthetized with chloral hydrate (400 mg/kg, i.p.), in adherence to protocols approved by the Yale Animal Care and Use Committee. After decapitation, the brains were removed rapidly and placed in ice-cold (4° C.) artificial cerebrospinal fluid (ACSF) in which sucrose (252 mM) was substituted for NaCl (sucrose-ACSF) to prevent cell swelling. A block of tissue containing PFC was dissected and coronal slices (400 μm) were cut in sucrose-ACSF with an oscillating-blade tissue sheer (Leica VT1000S). After placement of the slice in a submerged recording chamber, the bath temperature was raised to 32° C. Known concentrations of drugs dissolved in ACSF, applied through a stopcock arrangement at a fast flow rate (4 mL/min), reached the slice within 7-10 s. […] A recovery period of ˜1-2 h was allowed before commencement of recording.
Electrophysiology Recording. […] Series resistance, monitored throughout the experiment, was usually between 4 and 8 MΩ. […]

[2] = system: layer V pyramidal neurons in PFC; assay: Dendritic spine density and morphology analysis (two-photon imaging); format: in vivo, rat; conditions: Example H; NV-5138 160 mg/kg oral single dose; 24 hr
Protocol: as §1
Spine Density Analysis. Labeled neurons within layer V of anterior cingulate (Cg1) and prelimbic mPFC (Cg3) were imaged with a two-photon Ti:sapphire laser scanning system for analysis of spine density and morphology (810 nanometers; Mai Tai, Spectra Physics, Mountain View, Calif.) coupled to direct detection Radiance 2000 BioRad laser scanner (Zeiss Micromaging, Thornwood, N.Y.) mounted on a Olympus BX50WI microscope, using a 60× (0.9 numerical aperture) water-immersion objective. This includes the total number of spines on proximal and distal tufts of layer V neurons, as well as the spine head diameter, and indication of spine maturation. The length of apical tuft branch segments is determined within the 3D matrix of each Z-stack by using Neurolucida 10.2 (MicroBrightField). Spine density and spine head diameter analysis are done with the Autospine module of Neurolucida Explorer (version 10.2) on the raw image stacks (2-5 optical sections, 1 μm apart). Spine density and segmentation (beading) were sampled in three zones: tips of tuft branches as they approach the pial membrane, intermediate dendrites approximately midway between the pial membrane and bifurcation of apical trunk, and proximal tuft dendrites just distal to the bifurcation. Results were expressed in terms of total dendritic length, spine density, and segmentation density. Results were expressed in terms of spine density per 10 μm.

CC(C)(C[C@H](N)C(=O)O)C(F)F [NV-5138]
amplitude of 5-HT- and Hcrt-induced EPSCs (cumulative probability distribution) ([1]; FIG. 31, 24 hrs): on frequency but not amplitude
frequency of 5-HT-induced EPSCs relative to vehicle-treated rats ([1]; 24 hrs after dosing): significantly increased
frequency of Hcrt-induced EPSCs relative to vehicle-treated rats ([1]; 24 hrs after dosing): significantly increased
mushroom spine subtype density [2]: specific increase
overall spine density in layer V pyramidal neuron dendrites [2]: significant increase
thin spine subtype density [2]: specific increase
